This note sets out measurements from patent publication US11192888B2, “Antibacterial compounds” (priority 2017, dated 2021).

For one data set, the system named is B. cepasia ATCC25416. Briefly: Growth of Burkholderia with compound (FIG. 3), B. cepasia. In kind it is cell-based. To be noted: FIG. 3, LB broth, 17 hours. How it is done:
(§1) FIG. 3 is a graph showing the effect of varying concentrations of compound 3 according to the invention on the growth of Burkholderia in Lysogeny broth (LB broth) after 17 hours.
(§2) Compound 3 was tested to determine its antibacterial activity against B. multivorans, B. cepasia and B. vietnamiensis.

The subject of data set [1] is Enterobacter cloacae NCTC 13406.
For data set [2], the system named is Propionibacterium acnes ATCC 6919.
The subject of a further data set is B. multivorans ATCC17616. To be noted: for IC50: ATCC17616, 25 h.
In data set [3] the test system is Bacteroides fragilis ATCC 25285. As to conditions: ATCC 25285.
The subject of data set [4] is Clostridium difficile ATCC 43255. Nature of the data set: CLSI MIC, representative gut bacteria. In kind it is cell-based. As to conditions: Clostridium difficile ATCC 43255. How it is done:
(§3) Comparative in vitro bacterial susceptibility to compounds 3, 9 and 10, vancomycin and metronidazole was determined using methods according to the Clinical and Laboratory Standard Institute (CLSI) approved guidelines (M7-A10, M11-A7 or M45-A2) for anaerobic and aerobic organisms.

Data set [5] has as its system Clostridium sordellii ATCC 9714. Nature of the data set: CLSI MIC, representative gut bacteria. In kind it is cell-based. How it is done:
as §3

The subject of data set [6] is Pseudomonas aeruginosa NCTC 13437.
The subject of data set [7] is Bifidobacterium bifidum ATCC 11863.
Another data set deals with Strep. pyogenes. As to conditions: 13 h.
The subject of data set [8] is Clostridium difficile 630Δerm. As to conditions: 13 h.
Data set [9] concerns Citrobacter koseri Clinical.
Data set [10] relates to Staphylococcus aureus ATCC 29213.
The test system of data set [11] is Enterococcus faecium NCTC 12204.
Data set [12] has as its system Escherichia coli ATCC 25922.
Data set [13] has as its system Corynebacterium jeikeium NCTC 11914.
How the values of data set [14] were obtained:
In this study, a single oral dose of compound 3 in 0.5% w/v aqueous methylcellulose at 5 mg/kg was administered to nine mice in a 10 mL/kg dosing volume and housed in metabolism cages. Following administration of the compound, serial blood samples of 50 μL was taken from the lateral tail vein at each of 7 post-dosing time-points (0.25, 0.5, 1, 2, 4, 7 and 24 h). Whole blood samples were then diluted 1:1 with water and two 40 μL aliquots were pipetted into duplicate 96 well plate tubes. At the end of 24 h, all faecal samples were collected and pooled. A quantitative bioanalysis by LC-MS/MS of the blood and faecal levels of compound 3 was carried out to determine the oral absorbability and gastrointestinal metabolic stability of compound 3.
To evaluate the metabolic stability of orally administered compound 3, metabolite profiling of the faecal sample was performed.

Another data set has as its system Strep. agalactiae. As to conditions: 13 h.
The test system of data set [15] is Actinomyces viscosus DSM 43327.
Data set [16] deals with Corynebacterium striatium NCTC 764.
Data set [17] relates to clinical isolates and one wild-type strain of P. aeruginosa. Briefly: Growth of P. aeruginosa clinical isolates and wild-type strain with compounds (FIG. 1). In kind it is cell-based, Pseudomonas aeruginosa. To be noted: isolates W4, W14, W23, W46 and PAO1; MH media, 13 hours (FIG. 1). How it is done:
FIGS. 1a and 1b are graphs showing the effects of varying concentrations of compounds 2 and 3 according to the invention on the growth of different strains of P. aeruginosa in Müller-Hinton (MH) media, after 13 hours.
The antibacterial activity of compounds 2 and 3 were tested against clinical isolates and one wild-type strain of P. aeruginosa displaying varying antibiotic sensitivity.
The antibacterial activity of compounds 2 and 3 were tested against these clinical isolates and one wild-type strain of P. aeruginosa.

Data set [18] deals with Bifidobacterium breve ATCC 15700.
The test system of data set [19] is Enterococcus faecalis ATCC 29212.
In data set [20] the test system is Pseudomonas aeruginosa ATCC 27853.
The test system of data set [21] is Lactobacillus rhamnosus ATCC 53103.
For data set [22], the system named is Clostridium ramosum DSM 1402.
The test system of data set [23] is Proteus mirabilis DSM 30116.
Another data set relates to B. vietnamiensis J2863. Briefly: Growth of Burkholderia with compound (FIG. 3), B. vietnamiensis. In kind it is cell-based. As to conditions: FIG. 3, LB broth, 17 hours. The method, then: as §1, §2
Data set [24] concerns Clostridium innocuum DSM 1286.
The subject of a further data set is P. aeruginosa PAO1. As to conditions: for IC50 / % Growth inhibition at 100 μM: PAO1, 13 h.
Data set [25] has as its system Clostridium perfringens NCTC 8237.
Data set [26] concerns Corynebacterium urealyticum NCTC 12011.

Molecules are shown by their SMILES. In brackets after ≈: the same amount, converted by molar mass. *1 amine or outer side, *2 acyl side, *3 side chain or, on linkers, in order; H or OH if unused. Where a SMILES comes first, the peptide text is derived from it. [ ]: non-standard residue; d: D form. dAla(ψthiazole) = C[C@@H](N[*:1])c1nc(C(=O)[*:2])cs1; Trp(4-Br) = N[C@@H](Cc1c[nH]c2cccc(Br)c12)C(=O)O; Trp(4-Cl) = N[C@@H](Cc1c[nH]c2cccc(Cl)c12)C(=O)O; Trp(4-OMe) = COc1cccc2[nH]cc(C[C@H](N)C(=O)O)c12; X1 = O=C(/C(=C/c1ccccc1)N[*:1])[*:2]; Dha = C=C(N)C(=O)O; Sar = CNCC(=O)O A value given as a limit tells only on which side of the number the result lay.

As usually defined, the MIC is the lowest concentration that inhibits growth of the organism. What is called IC50 is the concentration that inhibits the measured activity by half. A higher IC50 goes with a need for much substance. Turning to `C=C1NC(=O)[C@@H](C)NC(=O)CNC(=O)[C@H](Cc2c[nH]c3cccc(Br)c23)NC(=O)[C@H](Cc2c[nH]c3ccccc23)NC(=O)c2csc(n2)[C@@H](C)NC(=O)CN(C)C1=O` [Compound 3, Cyclo[D-Ala-Thz-Trp-Trp(4-Br)-Gly-D-Ala-Dha-Sar]] (cyclo([Dha][Sar][dAla(ψthiazole)]W[Trp(4-Br)]G[dA])), the “antibacterial activity (growth decrease)” value with B. cepasia ATCC25416 is “highly active”; in the data set with B. multivorans ATCC17616 (FIG. 3, LB broth, 17 hours) it was “highly active”; with B. vietnamiensis J2863, “highly active”. Besides, the minimal inhibitory concentration (MIC) in data set [1] is above 64 µg/mL; in data set [2], above 64 µg/mL; in data set [3], above 64 µg/mL; in [4], 1.0 µg/mL (≈ 1.14 µM); in [5], 32 µg/mL (≈ 36.6 µM); in data set [6], above 64 µg/mL. Further, the MIC in data set [7], in data set [9], in data set [10], in data set [11], in [12] and in data set [13] was above 64 µg/mL each time. Also, the MIC in [15] was 64 µg/mL (≈ 73.2 µM); in data set [16], above 64 µg/mL; in data set [18], above 64 µg/mL; in data set [19], above 64 µg/mL; in data set [20], above 64 µg/mL; in data set [21], above 64 µg/mL. In addition, the MIC in [22], in data set [23], in [24], in data set [25] and in data set [26] was above 64 µg/mL each time. In addition, the IC50 in the data set with B. multivorans ATCC17616 was 1.6 ± 1.4 µM; with Strep. pyogenes, above 100 µM; in [8] it was 0.13 ± 0.02 µM; in the data set on Strep. agalactiae, above 100 µM; in the data set with P. aeruginosa PAO1, 13.2 ± 3.2 µM. In data set [14] (LC-MS metabolite profiling, above control sample), the “share of the mass of compounds detected in pooled faecal sample that corresponds to the compound” value was found to be 85%. The “compound recovered from pooled faeces” value in [14] (oral 5 mg/kg, mice, 24 h) is given as 63%. The “systemic exposure (blood)” value in data set [14] (single oral dose 5 mg/kg, mice, over 24 h) was “undetectable”. The “susceptibility of the isolates to the compound” value in data set [17] was “equally susceptible”. The “% Growth inhibition at 100 μM” value in the data set with P. aeruginosa PAO1 was found to be 85.7 ± 0.6%.

On to `C=C1NC(=O)[C@@H](C)NC(=O)CNC(=O)[C@H](Cc2c[nH]c3cccc(Cl)c23)NC(=O)[C@H](Cc2c[nH]c3ccccc23)NC(=O)c2csc(n2)[C@@H](C)NC(=O)CN(C)C1=O` [Compound 2, Cyclo[D-Ala-Thz-Trp-Trp(4-Cl)-Gly-D-Ala-Dha-Sar]] (cyclo([Dha][Sar][dAla(ψthiazole)]W[Trp(4-Cl)]G[dA])), for which the IC50 with B. multivorans ATCC17616 was 2.9 ± 2.5 µM; with Strep. pyogenes it was above 100 µM; in data set [8], 0.18 ± 0.03 µM; in the data set on Strep. agalactiae, above 100 µM; in the data set on P. aeruginosa PAO1, 16.8 ± 2.9 µM. Further, the “susceptibility of the isolates to the compound” value in data set [17] is “equally susceptible”. For the same molecule, in the data set with P. aeruginosa PAO1, the “% Growth inhibition at 100 μM” value stood at 87.0 ± 1.0%.

Turning to `C=C1NC(=O)[C@@H](C)NC(=O)CNC(=O)[C@H](Cc2c[nH]c3cccc(OC)c23)NC(=O)[C@H](Cc2c[nH]c3ccccc23)NC(=O)c2csc(n2)[C@@H](C)NC(=O)CN(C)C1=O` [Argyrin A, Cyclo[D-Ala-Thz-Trp-Trp(4-MeO)-Gly-D-Ala-Dha-Sar], reference compound] (cyclo(W[Trp(4-OMe)]G[dA][Dha][Sar][dAla(ψthiazole)])), the IC50 in the data set on B. multivorans ATCC17616 was found to be 3.1 ± 1.7 µM; with P. aeruginosa PAO1, 19.8 ± 1.6 µM. In the data set on P. aeruginosa PAO1, the “% Growth inhibition at 100 μM” value was 82.6 ± 7.4%.

`C[C@H]1NC(=O)CNC(=O)[C@H](Cc2c[nH]c3cccc(Br)c23)NC(=O)[C@H](Cc2c[nH]c3ccccc23)NC(=O)c2csc(n2)[C@@H](C)NC(=O)CN(C)C(=O)/C(=C/c2ccccc2)NC1=O` [Compound 12, Cyclo[D-Ala-Thz-Trp-Trp(4-Br)-Gly-D-Ala-Dhp-Sar]] (cyclo(G[dA][X1][Sar][dAla(ψthiazole)]W[Trp(4-Br)])) yielded an IC50 with B. multivorans ATCC17616 of 1.1 ± 0.2 µM. Also, in the data set on P. aeruginosa PAO1 (PAO1), the “activity against P. aeruginosa in comparison to the Dha containing compound 3” value is reported as “dramatic loss in activity”. Moreover, in the data set on P. aeruginosa PAO1, the IC50 is above 100 µM and the “% Growth inhibition at 100 μM” value is 20.1 ± 5.4%.
